Data from patent US6414145B1, “Imidazolyl compounds as inhibitors of farnesyl-protein tranferase” (Zeneca Limited, priority 1997, dated 2002).

Key:
[1] = target: T1, Farnesyl protein transferase (FPT) (Homo sapiens, UniProt P49354+P49356); experiment: Farnesyl protein transferase (FPT) inhibition, tritiated farnesyl pyrophosphate incorporation into Kras (CVIM); assay type: biochemical; details: FPT partially purified from human placenta; 300 nM tritiated farnesyl pyrophosphate, 120 nM ras-CVIM, 20 minutes at 37°
T1 construct: partially purified from human placenta by ammonium sulphate fractionation; from tissue; host or cells: human placenta
Protocol: Biological activity was tested as follows. Farnesyl protein transferase (FPT) was partially purified from human placenta by ammonium sulphate fractionation followed by a single Q-Sepharose™ (Pharmacia, Inc) anion exchange chromatography essentially as described by Ray and Lopez-Belmonte (Ray K P and Lopez-Belmonte J (1992) Biochemical Society Transations 20 494-497). The substrate for FPT was Kras (CVIM C-terminal sequence). The cDNA for oncogenic va112 variant of human c-Ki-ras-2 4B was obtained from the plasmid pSW11-1 (ATCC). This was then subcloned into the polylinker of a suitable expression vector e.g. pIC147, The Kras was obtained after expression in the E. coli strain, BL21. The expression and purification of c-KI-ras-2 4B and the val12 variant in E. coli has also been reported by Lowe et al (Lowe P N et al. J. Biol. Chem. (1991) 266 1672-1678).
Incubations with enzyme contained 300 nM tritiated farnesyl pyrophosphate (DuPont/New England Nuclear), 120 nM ras-CVIM, 50 mM Tris HCl pH 8.0, 5 mM MgCl2, 10 μM ZnCl2, 5 mM dithiotheitol and compounds were added at appropriate concentrations in DMSO (3% final concentration in test and vehicle control). […] Precipitated protein was then collected onto glass fibre filter mats (B) using a Tomtec™ cell harvester and tritiated label was measured in a Wallac™ 1204 Betaplate scintillation counter.

SMILES | IC50 [1] [nM] | melting point [°C]
CSCC[C@H](NC(=O)c1ccc(/C=C(\c2ccccc2)C(C)n2ccnc2)cc1)C(=O)O (stereo partly drawn) [Example 6, (2S)-2-{4-[(E)-3-(imidazol-1-yl)-3-methyl-2-phenyl-prop-1-enyl]-benzamido}-4-methylsulfanylbutyric acid] | ~150 | 
CSCC[C@H](NC(=O)c1cccc(/C=C(\Cn2ccnc2)c2ccc(F)cc2)c1)C(=O)O [Example 3, (2S)-2-{3-[(Z)-2-(4-fluorophenyl)-3-(imidazol-1-yl)-prop-1-enyl]-benzamido}-4-methylsulfanylbutyric acid] |  | 98 to 100
CSCC[C@H](NC(=O)c1ccc(/C=C(/Cn2ccnc2)c2ccc(F)cc2)cc1)C(=O)O [Example 12, (2S)-2-{4-[(E)-2-(4-Fluorophenyl)-3-(imidazol-1-yl)-prop-1-en-1-yl]benzamido}-4-methylsulfanylbutyric acid] |  | 106
